{"source": "patent US20090022739A1", "about": "“MODULATING THE KV1.1 VOLTAGE-GATED POTASSIUM CHANNEL IN T-CELLS FOR REGULATING THE […] AND SECRETION OF TUMOR NECROSIS FACTOR ALPHA (tnf-ALPHA) AND TREATING HUMAN DISEASE OR INJURIES MEDIATED BY […] HIGH OR LOW LEVELS OF TNF-ALPHA” (priority 2005, published 2009)", "key": {"[1]": {"target": "Shaker B K^+-channels (Drosophila melanogaster, UniProt P08510)", "sequence (P08510 whole entry)": "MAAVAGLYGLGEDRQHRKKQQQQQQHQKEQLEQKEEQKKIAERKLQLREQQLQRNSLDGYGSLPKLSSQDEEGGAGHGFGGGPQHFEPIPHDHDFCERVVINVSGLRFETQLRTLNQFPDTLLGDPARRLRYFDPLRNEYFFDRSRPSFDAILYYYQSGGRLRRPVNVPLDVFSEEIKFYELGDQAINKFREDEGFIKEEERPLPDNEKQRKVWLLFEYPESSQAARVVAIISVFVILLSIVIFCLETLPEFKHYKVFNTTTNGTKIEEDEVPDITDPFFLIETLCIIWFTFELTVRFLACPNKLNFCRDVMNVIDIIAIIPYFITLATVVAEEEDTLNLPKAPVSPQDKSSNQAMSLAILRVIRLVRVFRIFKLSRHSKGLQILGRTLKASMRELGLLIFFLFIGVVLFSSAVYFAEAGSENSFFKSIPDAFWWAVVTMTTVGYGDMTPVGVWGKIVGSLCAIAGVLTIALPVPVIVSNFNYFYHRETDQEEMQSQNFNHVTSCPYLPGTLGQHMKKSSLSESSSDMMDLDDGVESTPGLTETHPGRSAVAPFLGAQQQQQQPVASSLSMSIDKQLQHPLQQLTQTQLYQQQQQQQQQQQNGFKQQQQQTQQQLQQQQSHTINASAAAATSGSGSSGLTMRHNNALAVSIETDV", "conditions": "at 100 nM concentration; cited from earlier work"}, "[2]": {"target": "Kv1.1 voltage-gated potassium channel of normal human peripheral T-cells (human) (UniProt Q09470)", "sequence (Q09470 whole entry)": "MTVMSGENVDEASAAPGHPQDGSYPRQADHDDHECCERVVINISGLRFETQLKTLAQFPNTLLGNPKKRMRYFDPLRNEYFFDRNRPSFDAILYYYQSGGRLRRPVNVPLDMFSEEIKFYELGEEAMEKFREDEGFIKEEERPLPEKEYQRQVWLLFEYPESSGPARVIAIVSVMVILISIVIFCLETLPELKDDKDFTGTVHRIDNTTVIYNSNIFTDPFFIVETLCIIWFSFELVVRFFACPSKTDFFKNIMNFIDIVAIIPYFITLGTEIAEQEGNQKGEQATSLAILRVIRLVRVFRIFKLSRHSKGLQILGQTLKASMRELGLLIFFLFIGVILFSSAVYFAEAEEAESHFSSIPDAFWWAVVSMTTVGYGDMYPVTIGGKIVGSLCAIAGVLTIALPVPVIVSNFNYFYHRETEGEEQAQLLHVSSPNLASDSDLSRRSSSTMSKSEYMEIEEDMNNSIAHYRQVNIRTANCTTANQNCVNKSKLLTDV", "test": "cell-based or functional assay"}, "[3]": {"test_system": "normal human T-cells", "format": "cell-based", "conditions": "for fold increase in TNFα secretion: FIG. 1A, DTX-K 100 nM, other blockers at highest concentration used; for effect on DTX-K-induced TNF-α secretion: 100 μM blocker added 5 min before 100 nM DTX-K, FIG. 2K", "description": "Human T-Cells: Normal human T-cells were purified from peripheral blood of healthy donors as described (Levite et al, 2000; Ganor et al, 2003; Levite t al, 1998), and the resulting cell population, containing ≧90% T-cells, was suspended in RPMI medium supplemented with 10% FCS, 1% L-Glutamine and antibiotics (Biological Industries, Bet Haemek, Israel) and maintained at 2×10^6 cells/ml (37° C./5% CO2).\nDetermination of TNF-α, IFN-γ, IL-10 and IL-4 by ELISA: Freshly-purified normal resting human T-cells (2×10^6/ml) were incubated in 24-well plates (Costar, Corning, N.Y.) and the various channel blockers were added. […] Cytokine levels were measured in supernatants after 24 hours for TNF-α and IFN-γ and after 72 hours for IL-10 and IL-4, by quantitative sandwich ELISA (R&D, Minneapolis, Minn.), according to the manufacturer's instructions. […]\nThese 12 blockers were selected on the basis of their reported ability to block most types of K^+, Na^+, Ca^2+ and Cl^− channels expressed in T-cells (Deutsch et al, 1986; Lewis et al, 1995; Lewis et al, 1988; Rader et al, 1996; Freedman et al, 1995; Koo et al, 1997; Lin et al, 1993; Ishida et al, 1993; Jensen et al, 1999; Kotturi et al, 2003; Phipps et al, 1996; Verheugen et al, 1997; Levite et al, 2000; Chandy et al, 1984). The levels of TNFα secreted into the culture media were tested 24 hours later by ELISA. For positive control, the cells were exposed to the potent phorbol ester PMA, know to activate T-cells in a non-specific manner. The results are shown in FIG. 1A and represent fold increase ±SD TNF-α secretion tested in 2-3 independent experiments. Each ion channel blocker was examined in at least two independent experiments, and at several concentrations covering its effective range (see Materials and Methods). The numbers in each figure next to each blocker represent the highest molar concentration used. Statistical analysis: *P=0.0001, 0.0005, 0.0011 and 0.0005 vs. untreated for MgTX, KTX, DTX-K and PMA, respectively (Student's t-test)."}, "[4]": {"target": "T1, Kv1.1 (Homo sapiens, UniProt Q09470)", "T1 sequence (Q09470 whole entry)": "as above", "conditions": "cited from earlier work"}, "[5]": {"target": "Kv1.2 (Homo sapiens, UniProt P16389)", "conditions": "cited from earlier work"}, "[6]": {"target": "T2, Kv1.3 (Homo sapiens, UniProt P22001)", "T2 construct": "host or cells: Xenopus laevis oocytes", "T2 sequence (P22001 whole entry)": "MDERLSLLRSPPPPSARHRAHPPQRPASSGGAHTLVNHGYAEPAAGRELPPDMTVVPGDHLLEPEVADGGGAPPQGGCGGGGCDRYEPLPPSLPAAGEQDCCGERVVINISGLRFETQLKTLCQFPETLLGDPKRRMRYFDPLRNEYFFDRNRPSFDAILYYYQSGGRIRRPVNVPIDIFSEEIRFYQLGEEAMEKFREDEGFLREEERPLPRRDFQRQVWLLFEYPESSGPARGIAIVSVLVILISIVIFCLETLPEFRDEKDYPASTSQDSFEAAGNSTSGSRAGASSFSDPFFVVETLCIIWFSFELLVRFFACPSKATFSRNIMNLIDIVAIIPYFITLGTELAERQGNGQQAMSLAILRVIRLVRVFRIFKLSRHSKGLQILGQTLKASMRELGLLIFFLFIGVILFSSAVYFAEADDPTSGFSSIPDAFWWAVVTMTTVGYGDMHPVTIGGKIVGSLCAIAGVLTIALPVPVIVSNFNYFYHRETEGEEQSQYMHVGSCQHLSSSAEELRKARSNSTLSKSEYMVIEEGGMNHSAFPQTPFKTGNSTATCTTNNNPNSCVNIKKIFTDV", "conditions": "cited from earlier work"}, "[7]": {"test_system": "melanoma in-transit metastases", "conditions": "ILP; cited from earlier work"}, "[8]": {"test_system": "ion channels", "conditions": "manufacturer's data sheets and/or the literature; cited from earlier work"}, "[9]": {"target": "T1, Kv1.1", "conditions": "Gutman et al, 2003; cited from earlier work"}, "[10]": {"test_system": "Kv1.1, Kv1.2 and Kv1.3", "conditions": "cited from earlier work"}, "[11]": {"test_system": "cloned Kv1.1, Kv1.2 and Kv1.6 channels", "conditions": "cited from earlier work"}, "[12]": {"test_system": "high-grade STS", "conditions": "cited from earlier work"}, "[13]": {"test_system": "host ED1-positive cells in the liver", "conditions": "administration of TNF-α into the brain; Campbell et al, 2005; cited from earlier work"}, "[14]": {"conditions": "24 hours, several effective concentrations, no other stimulus"}, "[15]": {"conditions": "multicenter trials in Europe, ILP for STS"}}, "note": "Read-outs that look alike come from different tables or passages of the source. No end group written: not given here.", "data": [{"compound": "Pi4: 38-amino acid long peptide from the venom of the scorpion Pandinus imperator (IEAIRCGGSRDCYRPCQKRTGCPNAKCINKTCKCYGCS; UniProt P58498 1-38, looked up)", "values": [{"measurement": "block of Shaker B K^+-channels", "setting": "[1]", "result": "blocks completely and reversibly"}]}, {"compound": "rMargatoxin (from UniProt P40755 1-39) (peptide)", "values": [{"measurement": "fold increase in TNFα secretion by human T-cells (ELISA, 24 h)", "setting": "[2]", "result": 6.5, "unit": "fold"}]}, {"compound": "CC[N+](CC)(CC)CC", "note": "[TEA, Tetraethylammonium]", "values": [{"measurement": "TNF-α up-regulation", "setting": "[3]", "result": "no significant TNF-α up-regulation"}]}, {"compound": "rMargatoxin (TIINVKCTSPKQCLPPCKAQFGQSAGAKCMNGKCKCYPH) [MgTX]", "values": [{"measurement": "fold increase in TNFα secretion", "setting": "[3]; 24 hours, no other stimulus", "result": 6.5, "unit": "fold increase"}]}, {"compound": "maurotoxins: natural and synthetic maurotoxins, four disulfide bridges scorpion toxin (VSCTGSKDCYAPCRKQTGCPNAKCINKSCKCYGC; disulfide (positions not given here); also: four disulfide bridges, pairing not given here; UniProt P80719 1-34, looked up)", "values": [{"measurement": "IC50", "setting": "[4]; Xenopus oocytes, Rochat et al, 1998, read-out: half-effects (IC50), Kv1.1", "result": "~40", "unit": "nM"}, {"measurement": "IC50", "setting": "[5]; Xenopus oocytes, Rochat et al, 1998, read-out: half-effects (IC50), Kv1.2", "result": "~0.8", "unit": "nM"}, {"measurement": "IC50", "setting": "[6]; Xenopus oocytes, Rochat et al, 1998, read-out: half-effects (IC50), Kv1.3", "result": "~150", "unit": "nM"}]}, {"compound": "rCharybdotoxin [CTX]", "values": [{"measurement": "TNF-α up-regulation", "setting": "[3]; [14]", "result": "no significant TNF-α up-regulation"}]}, {"compound": "N[C@@H](Cc1ccc(N(CCCl)CCCl)cc1)C(=O)O", "note": "[melphalan]", "values": [{"measurement": "complete response (CR) rate", "setting": "[7]", "result": "~50", "unit": "%"}, {"measurement": "overall response rate", "setting": "[7]", "result": 80, "unit": "%"}]}, {"compound": "NC1=N[C@H](O)[C@H]2[C@H]3O[C@]4(O)O[C@@H]([C@@H](O)[C@@]2(N1)[C@@H]4O)[C@]3(O)CO", "note": "[TTX, Tetrodotoxin]", "values": [{"measurement": "TNF-α up-regulation", "setting": "[3]", "result": "no significant TNF-α up-regulation"}]}, {"compound": "N#Cc1cc2[nH]c(=O)c(=O)[nH]c2cc1[N+](=O)[O-]", "note": "[CNQX]", "values": [{"measurement": "TNF-α up-regulation", "setting": "[3]; [14]", "result": "no significant TNF-α up-regulation"}]}, {"compound": "O=C(O)c1cc([N+](=O)[O-])ccc1NCCCc1ccccc1", "note": "[NPPB]", "values": [{"measurement": "effect on DTX-K-induced TNF-α secretion", "setting": "[3]; 24 hours", "result": "no such interrupting effect"}, {"measurement": "TNF-α up-regulation", "setting": "[3]; [14]", "result": "no significant TNF-α up-regulation"}, {"measurement": "effective concentrations", "setting": "[8]", "result": "100 to 200", "unit": "µM"}]}, {"compound": "Clc1ccccc1C(c1ccccc1)(c1ccccc1)n1ccnc1", "note": "[CLT, Clotrimazole]", "values": [{"measurement": "TNF-α up-regulation", "setting": "[3]", "result": "no significant TNF-α up-regulation"}]}, {"compound": "COC(=O)C1=C(C)NC(C)=C([N+](=O)[O-])C1c1ccccc1C(F)(F)F", "note": "(stereo not drawn) [+Bay K, R-(+)-Bay K8644]", "values": [{"measurement": "effect on DTX-K-induced TNF-α secretion", "setting": "[3]; 24 hours", "result": "prevented completely"}, {"measurement": "TNF-α up-regulation", "setting": "[3]; [14]", "result": "no significant TNF-α up-regulation"}]}, {"compound": "Kaliotoxin (from UniProt P24662 1-38) (peptide)", "values": [{"measurement": "fold increase in TNFα secretion by human T-cells (ELISA, 24 h)", "setting": "[2]", "result": 15.1, "unit": "fold"}]}, {"compound": "C=C[C@H]1C[N@@]2CC[C@H]1C[C@H]2[C@H](O)c1ccnc2ccc(OC)cc12", "note": "[Quinine]", "values": [{"measurement": "TNF-α up-regulation", "setting": "[3]; [14]", "result": "no significant TNF-α up-regulation"}, {"measurement": "effective concentrations", "setting": "[8]", "result": "1 to 10", "unit": "µM"}]}, {"compound": "Kaliotoxin (GVEINVKCSGSPQCLKPCKDAGMRFGKCMNRKCHCTPK) [KTX]", "values": [{"measurement": "Ki", "setting": "[9]", "result": 20, "unit": "nM"}, {"measurement": "Kd", "setting": "[4]; bath application to Xenopus laevis oocytes, Mourre et al, 1999, read-out: K(d), recombinant Kv1.1", "result": 1.5, "unit": "nM"}, {"measurement": "fold increase in TNFα secretion", "setting": "[3]; 24 hours, no other stimulus", "result": 15.1, "unit": "fold increase"}, {"measurement": "effective concentrations", "setting": "[8]", "result": "0.001 to 0.1", "unit": "µM"}, {"measurement": "Kd", "setting": "[5]; bath application to Xenopus laevis oocytes, Mourre et al, 1999, read-out: K(d), recombinant Kv1.2", "result": 25, "unit": "nM"}, {"measurement": "Kd", "setting": "[6]; bath application to Xenopus laevis oocytes, Mourre et al, 1999, read-out: K(d), recombinant Kv1.3", "result": 0.1, "unit": "nM"}]}, {"compound": "rHongotoxin-1: Centruroides limbatus toxin, blocks Kv1.1, Kv1.2 and Kv1.3 (TVIDVKCTSPKQCLPPCKAQFGIRAGAKCMNGKCKCYPH; ends and bridges not checked; cysteine pairing not given here; UniProt P59847 1-39, looked up)", "values": [{"measurement": "blocking concentration, Kv1.1, Kv1.2 and Kv1.3", "setting": "[10]", "result": "0.1 to 0.2", "unit": "pM"}]}, {"compound": "CCCCCCCCCCCCCC(=O)O[C@@H]1[C@@H](C)[C@@]2(O)[C@@H](C=C(CO)C[C@]3(O)C(=O)C(C)=C[C@@H]23)[C@@H]2C(C)(C)[C@]12OC(C)=O", "note": "[PMA]", "values": [{"measurement": "fold increase in TNFα secretion", "setting": "[3]; 24 hours, no other stimulus", "result": 41.3, "unit": "fold increase"}]}, {"compound": "Alpha-dendrotoxin", "values": [{"measurement": "concentration range blocking cloned Kv1.1, Kv1.2 and Kv1.6 channels", "setting": "[11]", "result": "low nanomolar range"}]}, {"compound": "Nc1ccncc1", "note": "[4-AP, 4-Aminopyridine]", "values": [{"measurement": "TNF-α up-regulation", "setting": "[3]; [14]", "result": "no significant TNF-α up-regulation"}]}, {"compound": "TNF-α", "values": [{"measurement": "major response rates, median", "setting": "[12]; largest single-center studies in STS, range 58%-91%", "result": 76, "unit": "%"}, {"measurement": "median limb salvage rate", "setting": "[12]; largest single-center studies in STS, range 58%-97%", "result": 84, "unit": "%"}, {"measurement": "median limb salvage rate", "setting": "[12]; [15]", "result": 82, "unit": "%"}, {"measurement": "overall response rate", "setting": "[12]; [15]", "result": 76, "unit": "%"}, {"measurement": "increase in the number of host ED1-positive cells accumulated in the liver", "setting": "[13]", "result": "up to two fold increase"}, {"measurement": "complete response (CR) rate", "setting": "[7]", "result": "70%-90%"}, {"measurement": "overall response rate", "setting": "[7]", "result": "95%-100%"}]}]}
